Source: patent US5610185A, “Method for the treatment of hyperproliferative epithelial skin diseases by topical application of hydroxylated aromatic protein cross-linking compounds” (The United States of America as represented by the …, priority 1995, dated 1997)
Entries after “also recorded” stand apart in the source; their conditions may differ.

Columns and labels:
[1] = system: A431 human epidermoid carcinoma cells; assay: Growth inhibition (cell count), A431 cells; format: cell-based; conditions: 75 μM MC, 3 days
Experimental: (§1) FIG. 5. Cross-linked Protein Production vs Growth Inhibition in A431 ([…]) Cells. Cell growth is represented by black circles and crosslinked protein production by white circles. Results are ±SD (n=3) of one experiment, representative of three.
(§2) Cells were seeded at low density and were treated with MC for 3 days. Cells were then counted and increase in cell number was compared to untreated controls, or cells were processed for cross-linked protein (FIG. 5).

[2] = system: NIH 3T3 fibroblasts; assay: Protein envelope formation in NIH 3T3 fibroblasts; format: cell-based
[3] = system: primary mouse keratinocytes; assay: MTT cytotoxicity assay; format: cell-based; conditions: within 4 hours, medium with 1.4 mM Ca2+
Experimental: FIGS. 3A and 3B. A: Time course for cornification of primary mouse keratinocytes in response to MC. Boxes represent […] Ca^2+, triangles represent 100 μM MC, 1.4 mM Ca^2+, and solid circles represent 1 mM MC, 1.4 mM Ca^2+. […] Cells were incubated in medium with 1.4 mM Ca^2+ and MC for 4 hours, then were incubated with MTT (0.5 mg/ml in medium) for a further 4 hours before determination of formazan production.
MTT is a dye which is reduced by mitochondrial dehydrogenase enzymes to a blue formazan product. Ability of cells to reduce MTT can be used to measure cell viability (Mosmann T., J. Immunol. Methods, 65, 55-63, 1983). Cells were incubated in 96 well plates with or without MC for the indicated time, then were incubated for a further 4 hours with 0.5 mg/ml MTT. Medium was removed and 88.9% DMSO, 11.11% glycine buffer (100 mM glycine, 100 mM NaCL pH 10.5) was added to each well. Plates were shaken for 20 minutes to allow formazan dissolution, then absorbance was measured on a plate reader at 570 nm.

[4] = system: SQCC-Y1 human squamous carcinoma cells; assay: Cornified envelope (cross-linked protein) assay, SQCC-Y1 cells; format: cell-based; conditions: SQCC-Y1, 48 h, 0.1-1 mM
[5] = system: SP-1 cell tumors grafted on athymic nude mice; assay: Grafted SP-1 cell tumor formation in nude mice; format: in vivo, mouse; conditions: topical MC, 1 mM and 100 mM; twice weekly for two weeks or 5 days each week for three weeks
Experimental: FIGS. 10A and 10B. […] Numbers above bars denote the number of animals with tumors/the number of animals in the group. In panel A, MC was applied twice weekly for two weeks. In panel B, MC was applied on 5 days each week for three weeks.
Skin grafting was performed on athymic nude mice using 0.5×10^6 SP-1 cells with 8×10^6 newborn SENCAR mouse dermal fibroblasts as described (Strickland et al., Carcinogenesis, 14, 205, 1993). Domes (plastic covers placed over the site of skin grafting) were removed one week after grafting, and after a further week, topical application of MC commenced. The agent was applied in 25 ul 90% acetone, 10% DMSO vehicle. Weekly, tumor measurements were recorded up to 5 weeks after grafting.
Grafting was performed as described above. Tumors were measured using calipers at the termination of the experiment and tumors were fixed and sections were taken to confirm the tumor phenotype by microscopy.

[6] = Hori et al., J. Antibiot., 45, 280-282, 1992; cited from earlier work
[7] = system: SP-1 benign tumor mouse keratinocytes; assay: Cornified envelope (cross-linked protein) assay, SP-1 cells; format: cell-based
From the text: FIG. 1. MC Increases Cross-linked Protein in Epidermal Cell Lines. Black squares represent HPV 18 human epithelial keratinocytes; black circles represent SV 40 infected human keratinocytes; black triangles represent (SQCC-Y1) cells; white triangles represent (SP-1) benign tumor mouse keratinocytes; white squares represent (308 cells) benign mouse keratinocytes; and white circles represent (I-7) cells mouse squamous cell carcinoma.
FIGS. 2A and 2B, 2C and 2D show color phase contrast photographs. SP-1 cells were treated with vehicle (A and C) or 250 μM MC (B and D) for 48 hours. In A and B phase contrast photomicrographs were taken.
Primary mouse keratinocytes were isolated from BALB/c newborn mouse skin. […]
(§3) Cells were incubated with MC for 48 hours, then cross-linked protein was isolated and measured as described in Example 1.
(§4) The assay measures insoluble cross-linked protein envelopes as described (Hough-Monroe et al. Analytical biochem., 199, 25-28, 1991), with modifications as follows. […] Absorbance of eluate was measured on a Titertek plate reader at 600 nm.

[8] = system: A431 human epidermoid carcinoma cells; assay: Cornified envelope (cross-linked protein) assay, A431 cells; format: cell-based
From the text: as §1
Primary mouse keratinocytes were isolated from BALB/c newborn mouse skin. Primary keratinocytes, the benign neoplastic keratinocyte cell lines 308 and SP-1 (Strickland et al, Cancer Res., 48, 165-169, 1988) and the mouse squamous cell carcinoma line 1-7 (Greenhalgh et al., Proc. Natl. Acad. Sci., 87, 643-647, 1990) were grown in Eagle's minimal essential medium with 8% fetal calf serum (FCS) (chelexed) and penicillin 20 iu/ml, streptomycin 20 ug/ml (P/S). […]
as §3, §4, §2

**Q.** For `COC(=O)C=Cc1cc(O)ccc1O` [MC, methyl 2,5-dihydroxycinnamate], which “inhibition of cell growth” value [1] is on record?
**A.** The value was “inhibited cell growth significantly”.

**Q.** And the “effect of DTT on cross-linking by MC” value ([2]; 3T3 cells, simultaneous DTT 20 mM, 37° and 4° C.)?
**A.** The value was “prevented cross-linking”.

**Q.** And the “protein envelopes induced in NIH 3T3 fibroblasts” value ([2]; even when incubated at 4° C. in phosphate buffered saline)?
**A.** The value was “induced protein envelopes”.

**Q.** What about the “MTT reduction / cell death” value [3] of the same compound?
**A.** Its value is “cell death; also recorded: Inhibits MTT Reduction”.

**Q.** What about the “cross-linked protein (envelope production)” value (“cross-linked protein” below) [4] of the same compound?
**A.** The value was “induced crosslinked envelope production; also recorded: increased cross-linked protein in a dose-dependent manner”.

**Q.** And the “growth / formation of grafted SP-1 tumors” value [5]?
**A.** The value was “inhibited the growth of tumors; also recorded: inhibits Grafted SP-1 cell Tumor Formation; also recorded: inhibit tumor formation”.

**Q.** And the “half life in serum” value [6]?
**A.** The value was “short”.

**Q.** What about the “formation of cross-linked cornified envelopes (phase contrast)” value ([7]; SP-1, 250 μM, 48 hours) of the same compound?
**A.** Its value is “formation of cross-linked cornified envelopes”.

**Q.** And the “cross-linked protein” value ([7]; SP-1, 48 h, 0.1-1 mM)?
**A.** The value was “induced crosslinked envelope production; also recorded: increased cross-linked protein in a dose-dependent manner”.

**Q.** What about the “cross-linked protein” value ([8]; A431, 48 h, 0.1-1 mM) of the same compound?
**A.** Its value is “induced crosslinked envelope production; also recorded: increased cross-linked protein in a dose-dependent manner”.

**Q.** What about the minimal effective concentration ([8]; Homo sapiens, A-431, 72 h, A431, 3 days, read-out: concentration at which protein cross-linking is evident) of the same compound?
**A.** The minimal effective concentration was at least 250 µM.
